Publication PMC2744866 (Journal of medicinal chemistry, 2009)
Entries after “also recorded” stand apart in the source; their conditions may differ.

Legend:
human recombinant BHMT [1] = biological target: T1, human recombinant BHMT (Homo sapiens, UniProt Q93088); assay: BHMT inhibition assay; assay type: biochemical; conditions: for inhibition of BHMT, in words: qualitative statement; for % Inhibition (average of triplicates): 20 μM inhibitor, 0.25 mM betaine, 0.1 mM DL-homocysteine, pH 7.5, 37 °C
T1 sequence (Q93088 1-406): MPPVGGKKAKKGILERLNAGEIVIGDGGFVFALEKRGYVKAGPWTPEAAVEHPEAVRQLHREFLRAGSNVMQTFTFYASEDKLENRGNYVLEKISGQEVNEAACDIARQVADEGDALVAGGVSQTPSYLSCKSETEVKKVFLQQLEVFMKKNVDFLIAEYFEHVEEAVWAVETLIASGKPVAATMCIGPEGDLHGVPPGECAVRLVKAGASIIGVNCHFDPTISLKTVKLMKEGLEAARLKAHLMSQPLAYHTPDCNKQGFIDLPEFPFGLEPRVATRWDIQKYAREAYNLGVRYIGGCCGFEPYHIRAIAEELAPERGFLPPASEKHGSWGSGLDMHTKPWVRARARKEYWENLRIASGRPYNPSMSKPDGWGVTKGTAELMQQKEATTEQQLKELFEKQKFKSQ

[2] = 1H and 13C NMR pH titration; assay type: physicochemical; conditions: NMR titration over broad pH range
human recombinant BHMT [3] = biological target: T1, human recombinant BHMT; assay: Isothermal titration calorimetry of inhibitor binding to BHMT; conditions: ITC
[4] = pH 7.5, read-out: % Inhibition (average of triplicates)

Structure (SMILES)	inhibition of BHMT, in words (human recombinant BHMT [1])	further results
NC(CCOCCCCC(=O)O)C(=O)O (racemic) [Compound 8, (RS)-5-(3-Amino-3-carboxypropoxy)pentanoic Acid]	almost inactive	
C[N+](C)(CCSCCC(N)C(=O)O)CC(=O)[O-] (racemic) [Compound 12, (RS)-2-{[2-(3-Amino-3-carboxypropylthio)ethyl]dimethylammonium}acetate]		% Inhibition (average of triplicates) (human recombinant BHMT [1]): very weak inhibition
CN(CCSCCC(N)C(=O)O)CC(=O)O (racemic) [Compound 13, (RS)-2-Amino-4-{2-[(carboxymethyl)(methyl)amino]ethylthio}-butanoic Acid]	promising, but still moderate, inhibition	pK2 of secondary/tertiary amino group [2]: ~9.5
NC(CC[Se]CCCCC(=O)O)C(=O)O (racemic) [Compound 9, (RS)-5-(3-Amino-3-carboxypropylselanyl)pentanoic Acid]	strongly inhibited	fold weaker than compound 1 (human recombinant BHMT [1]; compared with reference inhibitor 1): 5 fold
CN(CCCSCCC(N)C(=O)O)CC(=O)O (racemic) [Compound 19, (RS)-2-Amino-4-{3-[(carboxymethyl)(methyl)amino]propylthio}butanoic Acid]	only a modest inhibitor	
NC(CCCSCCCC(=O)O)C(=O)O (racemic) [Compound 7, (RS)-2-Amino-5-(3-carboxypropylthio)pentanoic Acid]	low inhibitory potency	
NC(CCCCCCCC(=O)O)C(=O)O (racemic) [Compound 10, (RS)-2-Aminodecanedioic Acid]	almost inactive	
CC(C)(CCSCCC(N)C(=O)O)CC(=O)O (racemic) [Compound 21]	highly potent inhibitors	enthalpic contribution ΔH (human recombinant BHMT [3]; 25 °C, pH 7.5): -29.5 ± 1.2 kcal/mol; entropic contribution −TΔS (human recombinant BHMT [3]; 25 °C, pH 7.5): 19.6 ± 1.3 kcal/mol; association constant Ka (human recombinant BHMT [3]; 25 °C, pH 7.5, S-enantiomer): (2.0 ± 0.6) × 10^7 M^−1; stoichiometry of the main interaction (human recombinant BHMT [3]; inhibitor per BHMT monomer): 1.1 ± 0.1
NC(CCSSCCCC(=O)O)C(=O)O (racemic) [Compound 5, (RS)-2-Amino-4-[(3-carboxypropyl)disulfanyl]butanoic acid]	very weak inhibitor	
C[C@@H](CCSCC[C@@H](N)C(=O)O)CC(=O)O (racemic) [Compound 20]	highly potent inhibitors; also recorded: equipotent	
C[N+](C)(CCCSCCC(N)C(=O)O)CC(=O)[O-] (racemic) [Compound 18, (RS)-2-{[3-(3-Amino-3-carboxypropylthio)propyl]dimethylammonio}acetate]	did not inhibit BHMT at all	
C[N+](C)(CSCCC(N)C(=O)O)CC(=O)[O-] (racemic) [Compound 11, (RS)-2-{[(3-Amino-3-carboxypropylthio)methyl]dimethylammonium}acetate]		% Inhibition (average of triplicates) (human recombinant BHMT [1]): completely inactive
NC(CCSCCNCC(=O)O)C(=O)O (racemic) [Compound 16, (RS)-2-Amino-4-[2-(carboxymethylamino)ethylthio]butanoic Acid]		pK2 of secondary/tertiary amino group [2]: ~9.5
NC(CCSCSCCC(=O)O)C(=O)O (racemic) [Compound 6, (RS)-2-Amino-4-[(2-carboxyethylthio)methylthio]butanoic Acid]	moderate inhibitory potency	
NC(CCSCCCCC(=O)O)C(=O)O (stereo not shown) [Compound 1, reference compound]		inhibition at 1 µM (human recombinant BHMT [1]; [4]): 97.6%; inhibition at 20 µM (human recombinant BHMT [1]; [4]): 100%
